Reference: patent US20160244404A1, “OPTICAL ISOMERS OF (+) AND (-)-BENZHYDRYL UREAS AND (+) AND (-)-1-[(3-CHLOROPHENYL)-PHENYL-METHYL] UREA, A PHARMACEUTICAL COMPOSITION BASED THEREON AND A METHOD FOR PRODUCING SAID OPTICAL ISOMERS” (priority 2013, published 2016)
Marks after values point to notes of the source that are not given here.

What was measured:
[1] = system: convulsions induced by pentylenetetrazol; assay: Anticonvulsant potency against convulsions induced by pentylenetetrazol; assay type: in vivo; details: for Protection against stage 3 convulsions (% protection) / Protection against stage 4 convulsions (% protection) / Protection against stage 5 convulsions (% protection) / convulsive manifestations (points) induced by pentylenetetrazol (X ± SE): n = 10; for convulsive manifestations (points) induced by pentylenetetrazol (X ± SE): five-point scale; for mean convulsions score compared with that of the reference sample: all doses studied: 100 mg/kg, 150 mg/kg, 250 mg/kg; for anticonvulsive potency compared with the reference substance: on the basis of mean convulsions scores, 100, 150, 250 mg/kg
Protocol: (§1) Convulsions were induced by the administration of pentylenetetrazol. The severity (stage) of the convulsions was rated on a five-point scale. The anticonvulsant potency was rated on the basis of the substance's ability to reduce the severity of convulsions induced by the pentylenetetrazol. Halodif substances were administered intragastrically over 2 hr prior to the pentylenetetrazol. The pentylenetetrazol was administered subcutaneously. Probit analysis was used for statistical processing of the results with Student's test, ANOVA and criterion x. The differences in the results were considered statistically reliable at a significance level of p<0.05.
In the second phase the anticonvulsant potency of the reference substance was study in doses of 50 mg/kg, 100 mg/kg, 150 mg/kg, 200 mg/kg and 500 mg/kg (Table 2). The reference substance was racemic halodif. […] The halodif reference substance was used in doses of 50 mg/kg, 100 mg/kg, 150 mg/kg, 200 mg/kg and 500 mg/kg. Two hours after the halodif substance was administered to the animals the pentylenetetrazol (110 mg/kg) was administered and stage 3 and stage 5 convulsions were rated.
Samples were compared on the basis of the mean score for convulsive manifestations induced by pentylenetetrazol after administration of the samples under study.
The anticonvulsive potency of the samples of the halodif substance under study were also compared with respect to the proportion of animals in which the substance under study prevented the development of convulsions of differing severity induced by pentylenetetrazol. Table 4 presents the results expressed as the percentage of animals in which no convulsions of the specified stage developed (% protection).

animals = assay: Establishing the convulsion-inducing dose of pentylenetetrazol; assay type: in vivo
Protocol: as §1
In the first phase of the study the optimum convulsion-inducing dose of pentylenetetrazol, CD97, which was 110 mg/kg (Table 1) was established.

[2] = doses of 100 mg/kg and 150 mg/kg, stages 3 and 4
[3] = reference substance 50 mg/kg intragastrically 2 h before pentylenetetrazol 110 mg/kg
[4] = reference substance 100 mg/kg intragastrically 2 h before pentylenetetrazol 110 mg/kg
[5] = reference substance 150 mg/kg intragastrically 2 h before pentylenetetrazol 110 mg/kg
[6] = reference substance 200 mg/kg intragastrically 2 h before pentylenetetrazol 110 mg/kg
[7] = reference substance 500 mg/kg intragastrically 2 h before pentylenetetrazol 110 mg/kg
[8] = sample dose 100 mg/kg 2 hours before pentylenetetrazol 110 mg/kg
[9] = sample dose 100 mg/kg intragastrically 2 hours before pentylenetetrazol 110 mg/kg
[10] = sample dose 150 mg/kg 2 hours before pentylenetetrazol 110 mg/kg
[11] = sample dose 150 mg/kg intragastrically 2 hours before pentylenetetrazol 110 mg/kg
[12] = sample dose 250 mg/kg 2 hours before pentylenetetrazol 110 mg/kg
[13] = sample dose 250 mg/kg intragastrically 2 hours before pentylenetetrazol 110 mg/kg
[14] = sample dose 100 mg/kg 2 hours before pentylenetetrazol 110 mg/kg, listed as Sample 2/(−) isomer
[15] = sample dose 150 mg/kg 2 hours before pentylenetetrazol 110 mg/kg, listed as Sample 2/(−) isomer
[16] = sample dose 250 mg/kg 2 hours before pentylenetetrazol 110 mg/kg, listed as Sample 2/(−) isomer
[17] = pentylenetetrazol dose 90, 5 animals in the group
[18] = pentylenetetrazol dose 100, 5 animals in the group
[19] = pentylenetetrazol dose 110, 5 animals in the group
[20] = sample dose 100 mg/kg 2 hours before pentylenetetrazol 110 mg/kg, listed as Sample 4/(+) isomer
[21] = sample dose 250 mg/kg 2 hours before pentylenetetrazol 110 mg/kg, listed as Sample 4/(+)isomer

NC(=O)NC(c1ccccc1)c1cccc(Cl)c1 (racemic) [Reference sample, 1-[(3-chlorophenyl)-phenyl-methyl]urea, reference compound]
appearance of stage 5 convulsions ([1]; dose 200 mg/kg and higher, pentylenetetrazol 110 mg/kg): completely prevented | protection compared with samples 1 and 2 ((−)-isomer of halodif) [1, 2]: reliably higher protection | protection compared with samples 3 and 4 ((+)-isomer of halodif) [1, 2]: reliably lower protection | animals protected from tonic convulsions in all extremities (stage 5) ([1]; lowest dose (50 mg/kg), pentylenetetrazol 110 mg/kg): 20% | Proportion of animals with stage 3 convulsions (%, n = 5) [1, 3]: 100% | Proportion of animals with stage 5 convulsions (%, n = 5) [1, 3]: 80% | Proportion of animals with stage 3 convulsions (%, n = 5) [1, 4]: 100% | Proportion of animals with stage 5 convulsions (%, n = 5) [1, 4]: 20% | Proportion of animals with stage 3 convulsions (%, n = 5) [1, 5]: 70% | Proportion of animals with stage 5 convulsions (%, n = 5) [1, 5]: 10% | Proportion of animals with stage 3 convulsions (%, n = 5) [1, 6]: 60% | Proportion of animals with stage 5 convulsions (%, n = 5) [1, 6]: 0% | Proportion of animals with stage 3 convulsions (%, n = 5) [1, 7]: 60% | Proportion of animals with stage 5 convulsions (%, n = 5) [1, 7]: 0% | Protection against stage 3 convulsions (% protection) [1, 8]: 20% | Protection against stage 4 convulsions (% protection) [1, 8]: 50% | Protection against stage 5 convulsions (% protection) [1, 8]: 80% | convulsive manifestations (points) induced by pentylenetetrazol (X ± SE) [1, 9]: 3.5 ± 0.31 points | Protection against stage 3 convulsions (% protection) [1, 10]: 30% | Protection against stage 4 convulsions (% protection) [1, 10]: 70% | Protection against stage 5 convulsions (% protection) [1, 10]: 90% | convulsive manifestations (points) induced by pentylenetetrazol (X ± SE) [1, 11]: 2.9 ± 0.28 points | Protection against stage 3 convulsions (% protection) [1, 12]: 50% | Protection against stage 4 convulsions (% protection) [1, 12]: 80% | Protection against stage 5 convulsions (% protection) [1, 12]: 100% | convulsive manifestations (points) induced by pentylenetetrazol (X ± SE) [1, 13]: 2.6 ± 0.33 points | animals in which development of clonic convulsions (stage 3 convulsions) was prevented ([1]; starting at a dose of 150 mg/kg, pentylenetetrazol 110 mg/kg): 30-40%

NC(=O)NC(c1ccccc1)c1cccc(Cl)c1 (single isomer, unassigned; (-)) [Sample 1/(−) isomer, (−)-1-[(3-chlorophenyl)-phenyl-methyl]urea]
mean convulsions score compared with that of the reference sample [1]: higher | anticonvulsive potency compared with the reference substance [1]: less anticonvulsive potency | Protection against stage 3 convulsions (% protection) [1, 8]: 10% | Protection against stage 4 convulsions (% protection) [1, 8]: 40% | Protection against stage 5 convulsions (% protection) [1, 8]: 60* % | Protection against stage 4 convulsions (% protection) [1, 14]: 20* % | Protection against stage 5 convulsions (% protection) [1, 14]: 70% | convulsive manifestations (points) induced by pentylenetetrazol (X ± SE) [1, 9]: 3.8 ± 0.39 points | convulsive manifestations (points) induced by pentylenetetrazol (X ± SE) ([1]; sample dose 100 mg/kg intragastrically 2 hours before pentylenetetrazol 110 mg/kg, listed as Sample 2/(−) isomer): 4.1 ± 0.23 points | convulsive manifestations (points) induced by pentylenetetrazol (X ± SE) ([1]; sample dose 100 mg/kg intragastrically 2 hours before pentylenetetrazol 110 mg/kg, listed as sample 1): 3.8±0.39 points | Protection against stage 3 convulsions (% protection) [1, 10]: 20% | Protection against stage 4 convulsions (% protection) [1, 10]: 70% | Protection against stage 5 convulsions (% protection) [1, 10]: 80% | Protection against stage 3 convulsions (% protection) [1, 15]: 10% | Protection against stage 4 convulsions (% protection) [1, 15]: 40* % | Protection against stage 5 convulsions (% protection) [1, 15]: 70% | convulsive manifestations (points) induced by pentylenetetrazol (X ± SE) [1, 11]: 2.9 ± 0.29 points | convulsive manifestations (points) induced by pentylenetetrazol (X ± SE) ([1]; sample dose 150 mg/kg intragastrically 2 hours before pentylenetetrazol 110 mg/kg, listed as Sample 2/(−) isomer): 3.5 ± 0.22 points | Protection against stage 3 convulsions (% protection) [1, 12]: 40% | Protection against stage 4 convulsions (% protection) [1, 12]: 80% | Protection against stage 5 convulsions (% protection) [1, 12]: 100% | Protection against stage 3 convulsions (% protection) [1, 16]: 30% | Protection against stage 4 convulsions (% protection) [1, 16]: 70% | convulsive manifestations (points) induced by pentylenetetrazol (X ± SE) [1, 13]: 2.8 ± 0.41 points | convulsive manifestations (points) induced by pentylenetetrazol (X ± SE) ([1]; sample dose 250 mg/kg intragastrically 2 hours before pentylenetetrazol 110 mg/kg, listed as Sample 2/(−) isomer): 3.0 ± 0.37 points | convulsive manifestations (points) induced by pentylenetetrazol (X ± SE) ([1]; sample dose 250 mg/kg intragastrically 2 hours before pentylenetetrazol 110 mg/kg, listed as sample 1): 2.8±0.41 points

C1CCc2nnnn2CC1 [Pentylenetetrazol, pentylenetetrazol]
Number of animals with stage 3 convulsions (animals; pentylenetetrazol dose 80 (no unit in table; mg/kg), 5 animals in the group): 0 | Proportion of animals with stage 3 (%) (animals; pentylenetetrazol dose 80, 5 animals in the group): 0% | Number of animals with stage 3 convulsions (animals; [17]): 3 | Proportion of animals with stage 3 (%) (animals; [17]): 60% | Number of animals with stage 3 convulsions (animals; [18]): 4 | Proportion of animals with stage 3 (%) (animals; [18]): 80% | Number of animals with stage 3 convulsions (animals; [19]): 4 | Proportion of animals with stage 3 (%) (animals; [19]): 80% | optimum convulsion-inducing dose of pentylenetetrazol, CD97 (animals; subcutaneous): 110 mg/kg

NC(=O)N[C@H](c1ccccc1)c1cccc(Cl)c1 [Sample 3/(+) isomer, (+)-1-[(3-chlorophenyl)-phenyl-methyl]urea]
mean convulsions score compared with that of the reference sample [1]: lower convulsions score | protection against convulsions, comparison of the samples ([1]; all stages (3, 4 and 5)): greater protection | anticonvulsive potency compared with its optical antipode ([1]; in vivo): higher anticonvulsive potency | anticonvulsive potency compared with the reference substance [1]: more anticonvulsive potency | Protection against stage 3 convulsions (% protection) [1, 8]: 30% | Protection against stage 4 convulsions (% protection) [1, 8]: 60% | Protection against stage 5 convulsions (% protection) [1, 8]: 80% | Protection against stage 3 convulsions (% protection) [1, 20]: 20% | Protection against stage 4 convulsions (% protection) [1, 20]: 80% | Protection against stage 5 convulsions (% protection) [1, 20]: 100% | convulsive manifestations (points) induced by pentylenetetrazol (X ± SE) [1, 9]: 3.2 ± 0.42 points | convulsive manifestations (points) induced by pentylenetetrazol (X ± SE) ([1]; sample dose 100 mg/kg intragastrically 2 hours before pentylenetetrazol 110 mg/kg, listed as Sample 4/(+) isomer): 3.0 ± 0.21 points | Protection against stage 3 convulsions (% protection) [1, 10]: 40% | Protection against stage 4 convulsions (% protection) [1, 10]: 90% | Protection against stage 5 convulsions (% protection) [1, 10]: 100% | Protection against stage 3 convulsions (% protection) ([1]; sample dose 150 mg/kg 2 hours before pentylenetetrazol 110 mg/kg, listed as Sample 4/(+)isomer): 30% | convulsive manifestations (points) induced by pentylenetetrazol (X ± SE) [1, 11]: 2.5 ± 0.31 points | convulsive manifestations (points) induced by pentylenetetrazol (X ± SE) ([1]; sample dose 150 mg/kg intragastrically 2 hours before pentylenetetrazol 110 mg/kg, listed as Sample 4/(+) isomer): 2.6 ± 0.31 points | Protection against stage 3 convulsions (% protection) [1, 12]: 70% | Protection against stage 4 convulsions (% protection) [1, 12]: 100% | Protection against stage 5 convulsions (% protection) [1, 12]: 100% | Protection against stage 3 convulsions (% protection) [1, 21]: 50% | Protection against stage 4 convulsions (% protection) [1, 21]: 90% | convulsive manifestations (points) induced by pentylenetetrazol (X ± SE) [1, 13]: 1.9 ± 0.28 points | convulsive manifestations (points) induced by pentylenetetrazol (X ± SE) ([1]; sample dose 250 mg/kg intragastrically 2 hours before pentylenetetrazol 110 mg/kg, listed as Sample 4/(+) isomer): 2.5 ± 0.27 points
